Data: ChEMBL document CHEMBL1145395, “De novo design of selective antibiotic peptides by incorporation of unnatural amino acids” (J Med Chem, 2007)
Values after ≈ are worked out from the molar mass of the structure shown. Non-standard residues stand in square brackets, D forms with d. Residues, ends and D or L forms follow the SMILES beside them. ξ: configuration not given here. Pro(3ξ,4ξ-(CH2)4) = O=C(O)[C@H]1NCC2CCCCC21; Oic = O=C(O)[C@@H]1C[C@@H]2CCCC[C@@H]2N1; Tic = O=C(O)[C@@H]1Cc2ccccc2CN1; ξTic = O=C(O)C1Cc2ccccc2CN1; Ahx = NCCCCCC(=O)O; GABA = NCCCC(=O)O

Legend:
Mus musculus [1] = experiment: Acute toxicity in mouse at 1 mg/kg, ip after 6 days; assay type: organism-based; parameters: dose 1 mg/kg, route intraperitoneal; details: in vivo, 144 h
Mus musculus [2] = experiment: Acute toxicity in mouse at 5 mg/kg, ip after 6 days; assay type: organism-based; parameters: dose 5 mg/kg, route intraperitoneal; details: in vivo, 144 h
Mus musculus [3] = experiment: Acute toxicity in mouse at 25 mg/kg, ip after 6 days; assay type: organism-based; parameters: dose 25 mg/kg, route intraperitoneal; details: in vivo, 144 h
[4] = Toxicity to mouse RBC assessed as hemolytic activity at 100 uM; assay type: cell-based, Erythrocyte; details: red blood cells, read-out: Activity
[5] = Toxicity to mouse RBC assessed as hemolytic activity at 25 uM; assay type: cell-based, Erythrocyte; details: red blood cells, read-out: Activity
Salmonella typhimurium = experiment: Antibacterial activity against Salmonella Typhimurium ATCC 13311; assay type: functional, Salmonella enterica subsp. enterica serovar Typhimurium; details: Salmonella enterica
Staphylococcus aureus = experiment: Antibacterial activity against methicillin/gentamicin/tetracycline resistant Staphylococcus aureus ATCC 33592; assay type: functional
Mycobacterium = experiment: Antibacterial activity against Mycobacterium ranae ATCC 110; assay type: functional
Bacillus subtilis = experiment: Antibacterial activity against Bacillus subtilis ATCC 43223; assay type: functional

Row | Compound | Activity (Mus musculus [1]) | Activity (Mus musculus [2]) | Activity (Mus musculus [3]) | hemolysis at 100 µM [4] [%] | hemolysis at 25 µM [5] [%] | MIC (Salmonella typhimurium) [µM] | MIC (Staphylococcus aureus) [µM] | MIC (Mycobacterium) [µM] | MIC (Bacillus subtilis) [µM]
1 | CC(=O)NCCCC(=O)N[C@@H](Cc1ccccc1)C(=O)N1Cc2ccccc2C[C@H]1C(=O)N1[C@H](C(=O)NCCCC(=O)N[C@@H](CCCCN)C(=O)N2Cc3ccccc3C[C@H]2C(=O)N2[C@H](C(=O)NCCCC(=O)N[C@@H](Cc3ccccc3)C(=O)N3Cc4ccccc4C[C@H]3C(=O)N3[C@H](C(=O)NCCCC(=O)N[C@@H](CCCCN)C(=O)N4Cc5ccccc5C[C@H]4C(=O)N[C@@H](CCCCN)C(=O)N[C@@H](CCCCN)C(=O)N[C@@H](CCCCN)C(=O)N[C@@H](CCCCN)C(N)=O)C[C@@H]4CCCC[C@@H]43)C[C@@H]3CCCC[C@@H]32)C[C@@H]2CCCC[C@@H]21 (Ac-[GABA]F[Tic][Oic][GABA]K[Tic][Oic][GABA]F[Tic][Oic][GABA]K[Tic]KKKK-NH2) | Non-toxic | Non-toxic | Non-toxic | 10.8 | 1 |  |  |  | 
2 | CC(=O)NCCCCCC(=O)N[C@@H](Cc1ccccc1)C(=O)N1Cc2ccccc2C[C@H]1C(=O)N1CC2CCCCC2[C@H]1C(=O)NCCCCCC(=O)N[C@@H](CCCCN)C(=O)N1Cc2ccccc2C[C@H]1C(=O)N1CC2CCCCC2[C@H]1C(=O)NCCCCCC(=O)N[C@@H](Cc1ccccc1)C(=O)N1Cc2ccccc2C[C@H]1C(=O)N1CC2CCCCC2[C@H]1C(=O)NCCCCCC(=O)N[C@@H](CCCCN)C(=O)N1Cc2ccccc2C[C@H]1C(=O)N[C@@H](CCCCN)C(=O)N[C@@H](CCCCN)C(=O)N[C@@H](CCCCN)C(=O)N[C@@H](CCCCN)C(N)=O (stereo not given in full) (Ac-[Ahx]F[Tic][Pro(3ξ,4ξ-(CH2)4)][Ahx]K[Tic][Pro(3ξ,4ξ-(CH2)4)][Ahx]F[Tic][Pro(3ξ,4ξ-(CH2)4)][Ahx]K[Tic]KKKK-NH2) |  |  |  | 44.7 | 26.6 | 10 (≈ 26.7 µg/mL) | 10 (≈ 26.7 µg/mL) | 3 (≈ 8 µg/mL) | 1 (≈ 2.67 µg/mL)
3 | CC(=O)N[C@@H](Cc1ccccc1)C(=O)N1Cc2ccccc2C[C@H]1C(=O)N1CC2CCCCC2[C@H]1C(=O)N[C@@H](CCCCN)C(=O)N1Cc2ccccc2C[C@H]1C(=O)N1CC2CCCCC2[C@H]1C(=O)N[C@@H](Cc1ccccc1)C(=O)N1Cc2ccccc2C[C@H]1C(=O)N1CC2CCCCC2[C@H]1C(=O)N[C@@H](CCCCN)C(=O)N1Cc2ccccc2C[C@H]1C(=O)N[C@@H](CCCCN)C(=O)N[C@@H](CCCCN)C(=O)N[C@@H](CCCCN)C(=O)N[C@@H](CCCCN)C(N)=O (stereo not given in full) (Ac-F[Tic][Pro(3ξ,4ξ-(CH2)4)]K[Tic][Pro(3ξ,4ξ-(CH2)4)]F[Tic][Pro(3ξ,4ξ-(CH2)4)]K[Tic]KKKK-NH2) | Non-toxic | Non-toxic | Non-toxic | 86.8 | 50 | 10 (≈ 22.1 µg/mL) | 3 (≈ 6.64 µg/mL) | 30 (≈ 66.4 µg/mL) | 1 (≈ 2.21 µg/mL)
4 | CC(=O)N[C@@H](Cc1ccccc1)C(=O)N1Cc2ccccc2C[C@H]1C(=O)N1CC2CCCCC2[C@H]1C(=O)N[C@@H](CCCCN)C(=O)N1Cc2ccccc2C[C@H]1C(=O)N1CC2CCCCC2[C@H]1C(=O)N[C@@H](Cc1ccccc1)C(=O)N1Cc2ccccc2C[C@H]1C(=O)N1CC2CCCCC2[C@H]1C(=O)N[C@@H](CCCCN)C(=O)N1Cc2ccccc2C[C@H]1C(=O)N[C@@H](CCCCN)C(=O)N[C@@H](CCCCN)C(=O)N[C@@H](CCCCN)C(=O)N[C@@H](CCCCN)C(=O)N[C@@H](CCCCN)C(=O)N[C@@H](CCCCN)C(N)=O (stereo not given in full) (Ac-F[Tic][Pro(3ξ,4ξ-(CH2)4)]K[Tic][Pro(3ξ,4ξ-(CH2)4)]F[Tic][Pro(3ξ,4ξ-(CH2)4)]K[Tic]KKKKKK-NH2) |  |  |  | 41.3 | 33.5 | 10 (≈ 24.7 µg/mL) | 3 (≈ 7.41 µg/mL) | 3 (≈ 7.41 µg/mL) | 1 (≈ 2.47 µg/mL)
5 | CC(=O)NCC(=O)N1Cc2ccccc2C[C@H]1C(=O)N1CC2CCCCC2[C@H]1C(=O)N[C@@H](CCCCN)C(=O)N1Cc2ccccc2C[C@H]1C(=O)N1CC2CCCCC2[C@H]1C(=O)NCC(=O)N1Cc2ccccc2CC1C(=O)N1CC2CCCCC2[C@H]1C(=O)N[C@@H](CCCCN)C(=O)N1Cc2ccccc2C[C@H]1C(=O)N[C@@H](CCCCN)C(=O)N[C@@H](CCCCN)C(=O)N[C@@H](CCCCN)C(=O)N[C@@H](CCCCN)C(N)=O (stereo not given in full) (Ac-G[Tic][Pro(3ξ,4ξ-(CH2)4)]K[Tic][Pro(3ξ,4ξ-(CH2)4)]G[ξTic][Pro(3ξ,4ξ-(CH2)4)]K[Tic]KKKK-NH2) | Non-toxic | Non-toxic | Non-toxic | 26.7 | 9.2 | 10 (≈ 20.3 µg/mL) | 10 (≈ 20.3 µg/mL) | 3 (≈ 6.1 µg/mL) | 1 (≈ 2.03 µg/mL)
